Holding throughout (assay): DTP human tumour cell line panel, 48 h
Test [1] has as its system CAKI-1 renal.
Test [2] concerns CCRF-CEM leukemia.
Test [3] relates to COLO 205 colon.
Test [4] has as its system HCC-2998 colon.
In test [5] the test system is HL-60(TB) leukemia.
For test [6], the system named is HOP-62 NSCLC.
Test [7] relates to MOLT-4 leukemia.
The subject of test [8] is OVCAR-3 ovarian.
Test [9] relates to OVCAR-8 ovarian.
The test system of test [10] is RPMI-8226 leukemia.
Test [11] relates to SF-268 CNS.
The subject of test [12] is SK-MEL-2 melanoma.
Test [13] deals with SK-MEL-5 melanoma.
For test [14], the system named is SK-OV-3 ovarian.
For test [15], the system named is SN12C renal.
Test [16] concerns M14 melanoma.
The subject of test [17] is UO-31 renal.
The subject of test [18] is A498 renal.

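Protocol summary: plate cells (96-well), add compound at 5 concentrations, incubate 48 h, interpolate endpoints linearly. At the TGI there is no net growth.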 Some results are limits rather than exact numbers.

The term TGI denotes the concentration giving total growth inhibition. A high value points to lower sensitivity of the cells. Regarding `N#CN1CCC=C(c2cc3ccccc3[nH]2)C1`, the concentration for total growth inhibition (TGI) in test [1], in test [2], in test [3], in test [4], in [5] and in [6] was more than 448 µM each time. Besides, the TGI in test [7] is more than 448 µM; in [8], 339 µM; in [9], more than 448 µM; in [10] it was more than 448 µM; in test [11], more than 448 µM; in [12] it was more than 448 µM. Also, the concentration for total growth inhibition (TGI) in test [13], in test [14] and in test [15] was more than 448 µM throughout.
With `N#CC(NNC(=O)c1ccccc1O)c1ccccc1` (centres undefined), the TGI in test [1] was more than 100 µM; in test [2] it was more than 100 µM; in [3], more than 100 µM; in [5], 52.5 µM; in test [6] it was more than 100 µM; in test [16], more than 100 µM. For the same molecule, the TGI in [7] was more than 100 µM; in [8], 85.9 µM; in test [9], more than 100 µM; in [10] it was more than 100 µM; in [11] it was more than 100 µM; in test [12], more than 100 µM. In addition, the concentration for total growth inhibition (TGI) in test [13] is more than 100 µM; in test [14], more than 100 µM; in test [15], more than 100 µM; in test [17], 6.03 µM.
Consider `O=C1c2c(nc3ccccc3c2-c2ccccc2)CN1Nc1ccccc1`, for which the TGI in test [1], in test [2], in test [3], in test [4], in [5] and in test [6] was more than 100 µM throughout. The TGI in [16], in [7], in test [8], in test [9], in test [10] and in test [11] was more than 100 µM each time. The TGI in test [12], in test [13], in [14], in [15] and in [17] was more than 100 µM in each case.
With `C/C(=N\O)C(CN1CCCCC1)C(c1ccccc1)c1c(O)c2ccccc2oc1=O` (centres undefined), the total growth inhibition concentration (TGI) is more than 100 µM in [18]; more than 100 µM in [1]; more than 10 µM in test [2]; more than 100 µM in test [3]; more than 100 µM in [4]; more than 10 µM in test [5]. The total growth inhibition concentration (TGI) in test [6], in [16], in test [8], in test [9], in test [10] and in [11] was more than 100 µM throughout. Further, the total growth inhibition concentration (TGI) in test [12], in test [13], in test [14] and in test [15] was more than 100 µM each time.
Take `FC(F)(F)C1(C(F)(F)F)O[SiH]2(OC(C(F)(F)F)(C(F)(F)F)c3ccccc32)c2ccccc21`: the TGI turned out to be 87.1 µM in test [1]; 45.2 µM in test [3]; 37.4 µM in [4]; 29.4 µM in test [16]; 30.5 µM in test [7]; 40.6 µM in [8]. In addition, the TGI in [9] was 83.9 µM; in [10] it was 97.4 µM; in test [12], 49.3 µM; in [15] it was 63.1 µM; in test [17] it was 30.7 µM.
Take `C=CCCCCCC(O)C(O)C/C=C\C/C=C\CC` (centres undefined): the concentration for total growth inhibition (TGI) in test [1], in test [2], in test [3], in [4], in test [5] and in test [6] was more than 18.8 µM throughout. Also, the TGI in test [16], in test [7], in test [8], in test [9], in test [10] and in test [11] was more than 18.8 µM throughout. Besides, the total growth inhibition concentration (TGI) in test [12], in test [13], in test [14], in test [15] and in test [17] was more than 18.8 µM in each case.
Turning to `COc1ccc(CCc2ccccc2CC(=O)O)cc1`, the TGI in test [18], in test [1], in [2], in test [3], in test [4] and in [5] was more than 100 µM in each case. The TGI in [16], in test [7], in [8], in [9], in [10] and in test [11] was more than 100 µM throughout. The TGI in test [12], in test [13], in test [14], in test [15] and in test [17] was more than 100 µM each time.

Values taken from PubChem BioAssay (NCI).
